Tests used:
Candida krusei ATCC 6258 = assay: microbe, parasite or virus in culture; assay type: cell-based; settings: RPMI broth microdilution, 35° C., 48 hours, visual
Outline: (§1)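 Broth microdilution in RPMI 1640 with 0.165 mol.l^−1 MOPS; peptide dilutions of 0.625–160 μmol.l^−1 were added to wells, then inoculum at 5×10^2–2.5×10^3 CFU/ml final. Plates were incubated unshaken at 35 °C. MIC was read visually at 48 h as the lowest concentration without visible growth.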

[1] = system: Candida dubliniensis ATCC MYA-646; assay: microbe, parasite or virus in culture; assay type: cell-based; settings: RPMI broth microdilution, 35° C., 48 hours, visual
Outline: as §1

Candida glabrata DSY 565 = assay: microbe, parasite or virus in culture; assay type: cell-based; settings: RPMI broth microdilution, 35° C., 48 hours, visual
Outline: as §1

[2] = system: Candida tropicalis ATCC 750; assay: microbe, parasite or virus in culture; assay type: cell-based; settings: RPMI broth microdilution, 35° C., 48 hours, visual
Outline: as §1

[3] = system: Candida albicans ATCC MYA-2876; assay: microbe, parasite or virus in culture; assay type: cell-based; settings: RPMI broth microdilution, 35° C., 48 hours, visual
Outline: as §1

[4] = system: Candida albicans (Olomouc); assay: microbe, parasite or virus in culture; assay type: cell-based; settings: RPMI broth microdilution, 35° C., 48 hours, visual
Outline: as §1

[5] = system: Candida glabrata ATCC 2001; assay: microbe, parasite or virus in culture; assay type: cell-based; settings: RPMI broth microdilution, 35° C., 48 hours, visual
Outline: as §1

Micrococcus luteus = settings: Micrococcus luteus; 37° C., 20 h
Method: (§2) Gram-positive bacteria (Micrococcus luteus, Bacillus subtilis, Staphylococcus aureus, Staphylococcus epidermidis and Enterococcus faecalis), Gram-negative bacteria (Escherichia coli and Pseudomonas aeruginosa) and the yeast (Candida albicans) were grown to exponential phase and then were diluted with fresh medium. BHI medium (Oxoid, Great Britain) was used for Enterococcus faecalis; YPD medium containing yeast extract peptone and glucose was used for Candida albicans and LB medium (Sigma, Czech Republic) was used for the remaining microorganisms. Then the microorganisms were added to the solutions of the tested antimicrobial peptides in LB medium in multi-well plates. The final peptide concentration it the wells was in the range of 0.1 to 100 μmol.l^−1. That was made by twofold serial dilution from the peptide stock solution (1 mmol.l^−1). The plates were incubated at 37° C. for 20 h while being continuously shaken in a Bioscreen C (Oy Growth Curves AB Ltd., Helsinki, Finland). Absorbance was measured at 540 nm every 15 min. Antimicrobial activity (Table 2) was determined as a quantitative minimum inhibitory concentration (MIC) by observing bacterial growth in the presence of different concentrations of tested peptides. In the experiments ca 10^5 CFU of bacteria or candida per well were routinely used.
(§3) Multiresistant clinical isolates of bacteria were obtained from University Hospital in Motol, Prague, Czech Republic and from Liberec Regional Hospital, Czech Republic. Methicillin resistant Staphylococcus aureus (MRSA) 6271 and Pseudomonas aeruginosa 5482 were from the Czech National Collection of Type Cultures, the National Institute of Public Health, Prague, Czech Republic. Other bacteria were from the Czech Collection of Microorganisms, Brno, Czech Republic. Candida albicans came from the Faculty of Medicine, Palacky University, Olomouc, Czech Republic.

[6] = system: Staphylococcus aureus Motol; settings: Staphylococcus aureus Motol clinical isolate; 37° C., 20 h
Method: as §2, §3

Candida albicans Olomouc = settings: Candida albicans Olomouc; YPD medium; 37° C., 20 h (Example 2)
Method: as §2, §3

[7] = system: Enterococcus faecalis Motol; settings: BHI medium, 37° C., 20 h
Method: as §2, §3

[8] = system: Staphylococcus epidermidis Motol; settings: 37° C., 20 h
Method: as §2, §3

[9] = system: Staphylococcus aureus Liberec; settings: Staphylococcus aureus Liberec clinical isolate; 37° C., 20 h
Method: as §2, §3

[10] = system: Methicillin resistant Staphylococcus aureus (MRSA) 6271; settings: 37° C., 20 h
Method: as §2, §3

[11] = system: Pseudomonas aeruginosa Liberec; settings: Pseudomonas aeruginosa Liberec; 37° C., 20 h
Method: as §2, §3

Bacillus subtilis = settings: Bacillus subtilis; 37° C., 20 h
Method: as §2, §3

[12] = system: Pseudomonas aeruginosa 5482; settings: 37° C., 20 h
Method: as §2, §3

Escherichia coli = settings: 37° C., 20 h
Method: as §2, §3

P. aeruginosa (Liberec) = assay: Synergistic effect of peptides with antibiotics, FIC index; assay type: cell-based, Pseudomonas aeruginosa; settings: FIC <0.5 synergism, 0.5-2 additive, >2 antagonism, averages of three experiments; for FIC indexes (fractional inhibitory concentration) Combination with RIF against P. aeruginosa: peptide combined with rifampicin; for FIC indexes (fractional inhibitory concentration) Combination with TET against P. aeruginosa: peptide combined with tetracycline
Method: (§4) MICs values of various combinations of two fold serial dilutions of peptides and antibiotics were determined using the same methodology as in the case of antimicrobial activity determination (Example 2). To consider the type of the final effect, FIC indexes (fractional inhibitory concentration) were used and calculated as follows:
(§5) [formula] where MICPC and MICAC are the MICs of the peptide and antibiotic in combination, respectively, and MICP and MICA are the MICs of the peptide and antibiotic tested alone, respectively. FIC<0.5 were considered as synergy, 0.5≤FIC≤2 as addition effect, and FIC>2 as antagonism.

S. aureus (Liberec) = assay: as above; assay type: cell-based, Staphylococcus aureus; settings: peptide combined with amoxicillin; FIC <0.5 synergism, 0.5-2 additive, >2 antagonism; averages of three experiments
Method: as §4, §5

in vitro = settings: human
Outline: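 Peptides at 2-200 μmol.l^−1 incubated 1 h at 37 °C with 5% v/v human erythrocyte suspension in physiological solution. Released haemoglobin in supernatant read at 540 nm against buffer (0%) and 0.2% Triton X100 (100%) lysis controls. LC50 is the peptide concentration lysing 50% of cells.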

| Substance | Antifungal activity MIC C. krusei ATCC 6258 (Candida krusei ATCC 6258) [µM] | Antifungal activity MIC C. dubliniensis ATCC MYA-646 [1] [µM] | Antifungal activity MIC C. glabrata DSY 565 (Candida glabrata DSY 565) [µM] | Antifungal activity MIC C. tropicalis ATCC 750 [2] [µM] | Antifungal activity MIC C. albicans ATCC MYA-2876 [3] [µM] | Antifungal activity MIC C. albicans Olomouc [4] [µM] | Antifungal activity MIC C. glabrata ATCC 2001 [5] [µM] | Antimicrobial activity MIC M. l. (Micrococcus luteus) [µM] | Antimicrobial activity MIC S. a. Motol [6] [µM] | Antimicrobial activity MIC C. a. Olomouc (Candida albicans Olomouc) [µM] | Antimicrobial activity MIC E. f. Motol [7] [µM] | Antimicrobial activity MIC S. e. Motol [8] [µM] | Antimicrobial activity MIC S. a. Liberec [9] [µM] | Antimicrobial activity MIC S. a. 6271 [10] [µM] | Antimicrobial activity MIC P. a. Liberec [11] [µM] | Antimicrobial activity MIC B. s. (Bacillus subtilis) [µM] | Antimicrobial activity MIC P. a. 5482 [12] [µM] | Antimicrobial activity MIC E. c. (Escherichia coli) [µM] | FIC indexes (fractional inhibitory concentration) Combination with RIF against P. aeruginosa (P. aeruginosa (Liberec)) | FIC indexes (fractional inhibitory concentration) Combination with TET against P. aeruginosa (P. aeruginosa (Liberec)) | further results |
| --- | --- | --- | --- | --- | --- | --- | --- | --- | --- | --- | --- | --- | --- | --- | --- | --- | --- | --- | --- | --- | --- |
| H-KILSSLLKKLKKIIAK-NH2 [VI] | 4.8 | 12.0 | 71.1 | 0.9 | 20.0 | 12.0 | 28.0 | 1.0 | 10.0 | 25.3 | 32.5 | 1.4 | 5.5 | 32.0 | 16.0 | 1.3 | 5.0 | 16.0 | 0.260 | 0.708 | FIC indexes (fractional inhibitory concentration) Combination with AMX against S. aureus (S. aureus (Liberec)): 0.292; HC50 at 1 h (in vitro): 364 µM |
| H-GIWSSLLKKLKKIIAK-NH2 [XIV] | 5.2 | 9.0 | 48.0 | 1.2 | 10.0 | 8.2 | 19.1 | 0.8 | 5.3 | 16.0 | 46.0 | 1.5 | 4.6 | 20.0 | 21.0 | 0.8 | 6.3 | 1.6 | 0.271 | 0.354 | FIC indexes (fractional inhibitory concentration) Combination with AMX against S. aureus (S. aureus (Liberec)): 0.396; HC50 at 1 h (in vitro): 165 µM |
| H-GIMSSLMKKLKKIIKK-NH2 [VII] | 10.0 | 20.0 | 97.8 | 1.1 | 22.0 | 17.0 | 40.0 | 1.9 | 64.7 | 6.3 | >100 | 1.7 | 18.0 | 54.0 | 9.9 | 2.5 | 7.1 | 22.0 | 0.365 | 0.625 | FIC indexes (fractional inhibitory concentration) Combination with AMX against S. aureus (S. aureus (Liberec)): 0.167; HC50 at 1 h (in vitro): > 400 µM |
| H-GILKSLLKKLKKIIAK-NH2 [X] | 5.0 | 14.0 | 71.1 | 1.0 | 17.0 | 10.5 | 34.0 | 1.4 | 10.0 | 24.0 | 76.7 | 2.2 | 4.3 | 16.5 | 8.9 | 1.5 | 5.0 | 10.0 | 0.333 | 0.521 | FIC indexes (fractional inhibitory concentration) Combination with AMX against S. aureus (S. aureus (Liberec)): 0.542; HC50 at 1 h (in vitro): > 400 µM |
